The test deals with Toxoplasma gondii RH-2F tachyzoites. The test is described as follows: microbe, parasite or virus in culture. The settings on record: 72 h.
Setting [1] is: read-out: Parasite inhibition (%) mean, preliminary screen, mean.
The mark [2] stands for this setting: read-out: Parasite inhibition (%) mean, preliminary screen of compound library, mean.
[3] abbreviates: read-out: Parasite inhibition (%) mean.

Each structure is given as a SMILES string. Structures can show the parent of a compound that is named as a salt. Where two headings read alike, the source gives them in different places.

Turning to `CCCCCCOC(=O)/N=C(/N)c1ccc(NCc2nc3cc(C(=O)N(CCC(=O)OCC)c4ccccn4)ccc3n2C)cc1`, the inhibition of growth at 5 µM under setting [1] came to 1.2%.

For `CC=CC1=C(C(=O)O)N2C(=O)[C@@H](NC(=O)[C@H](N)c3ccc(O)cc3)[C@H]2SC1` (mixture of isomers) [Cefprozil hydrate (Cefzil)], under setting [2], the inhibition of growth at 5 µM is 12.3%. Turning to `CC1COC2(CCN(c3nc(=O)c4cc(C(F)(F)F)cc([N+](=O)[O-])c4s3)CC2)O1` (racemic) [BTZ043 racemate], under setting [1], the inhibition of growth at 5 µM is -5.8%. Consider `CNCC(O)c1ccc(O)c(O)c1` (racemic) [DL-Adrenaline], for which the inhibition of growth at 5 µM under setting [3] amounted to 1.5%. `Nc1ncnc2c1c(-c1cccc(OCc3ccccc3)c1)cn2C1CC(CN2CCCC2)C1` (stereo in doubt) [NVP-ADW742]: under setting [1], the inhibition of growth at 5 µM was 48.9%. Regarding `NCC(=O)CCC(=O)O` [5-Aminolevulinic acid hydrochloride], under setting [2], the inhibition of growth at 5 µM worked out at 20.1%. On the same count and under the same terms, the result for `NC(Cc1c[nH]c2ccc(O)cc12)C(=O)O` (stereo not drawn) [5-hydroxytryptophan (5-HTP)] reads 0%.

With `NC[C@H](CC(=O)O)c1ccc(Cl)cc1` [(R)-baclofen], the inhibition of growth at 5 µM under setting [2] was 23.1%.

For the compound `Cc1nc(NC(=O)N2CCC[C@H]2C(N)=O)sc1-c1csc(C(C)(C)C)n1` [A66], the inhibition of growth at 5 µM under setting [2] was determined as 0.9%. For `COc1ccc(S(=O)(=O)Nc2cccnc2Nc2ccc(O)cc2)cc1` [ABT-751], the inhibition of growth at 5 µM under setting [1] stood at 22.7%. On the same count and under the same terms, to `C[C@]1(c2nc3c(C(N)=O)cccc3[nH]2)CCCN1` [ABT-888 (Veliparib)] belongs 50.5%. As for `C[C@@H](NCCCc1cccc(C(F)(F)F)c1)c1cccc2ccccc12` [AMG-073 HCl (Cinacalcet HCl)], under setting [1], the inhibition of growth at 5 µM is -0.4%. Take `C[C@@H](NCCCc1cccc(C(F)(F)F)c1)c1cccc2ccccc12` [AMG-073 HCl (Cinacalcet hydrochloride)]: the inhibition of growth at 5 µM under setting [2] amounted to 2.4%. `CNC(=O)c1ccc(N2C(=S)N(c3cnc(C#N)c(C(F)(F)F)c3)C(=O)C23CCC3)cc1F` [ARN-509]: the inhibition of growth at 5 µM under setting [2] amounted to 28.7%. For the compound `O=C(NC[C@H](O)CO)c1ccncc1Nc1ccc(I)cc1F` [AS703026 (pimasertib)], the inhibition of growth at 5 µM under setting [1] is -20.8%.

With `O=C1NC(=O)/C(=C/c2ccc3c(c2)OC(F)(F)O3)S1` [AS-604850], the inhibition of growth at 5 µM under setting [2] is 0.8%. Regarding `Nc1ncnc2c1ncn2[C@@H]1O[C@@H](COP(=O)(O)OP(=O)(O)OP(=O)(O)O)[C@@H](O)[C@H]1O` [ATP (Adenosine-Triphosphate)], the inhibition of growth at 5 µM under setting [2] was -56.8%. Take `CNC(=O)c1cccc(-c2ccc3c(N4CCOC[C@@H]4C)nc(N4CCOC[C@@H]4C)nc3n2)c1` [AZD2014]: the inhibition of growth at 5 µM under setting [2] stood at 45.5%. The same measure, in the same setting: the result for `Nc1nc2c(ncn2COCCO)c(=O)[nH]1` [Acyclovir (Aciclovir)] reads -55.5%. In the case of `CC(C)(C)C(=O)OCOP(=O)(COCCn1cnc2c(N)ncnc21)OCOC(=O)C(C)(C)C` [Adefovir Dipivoxil (Preveon, Hepsera)], under setting [1], the inhibition of growth at 5 µM worked out at 0%.

On to `Nc1ncnc2[nH]cnc12` [Adenine HCl], for which the inhibition of growth at 5 µM under setting [1] turned out to be 22.6%. As for `Nc1ncnc2nc[nH]c12` [Adenine sulfate], the inhibition of growth at 5 µM under setting [3] was determined as 11.8%. Consider `CNCC(=O)c1ccc(O)c(O)c1` [Adrenalone HCl], for which, under setting [2], the inhibition of growth at 5 µM is 17.8%. Turning to `CN(C)C/C=C/C(=O)Nc1cc2c(Nc3ccc(F)c(Cl)c3)ncnc2cc1O[C@H]1CCOC1` [Afatinib (BIBW2992)], the inhibition of growth at 5 µM under setting [1] worked out at 42.8%. With `COc1ccc2cccc(CCNC(C)=O)c2c1` [Agomelatine], the inhibition of growth at 5 µM under setting [1] is 64.2%. For `C=CCc1cc(OC)c(O)c(C(=O)NCCO)c1` [Alibendol], the inhibition of growth at 5 µM under setting [2] is 0.1%.

For `O=c1[nH]cnc2[nH]ncc12` [Allopurinol Sodium (Aloprim)], the inhibition of growth at 5 µM under setting [1] is -0.7%. Same read-out and setting: the result for `CN(C)CCc1c[nH]c2ccc(CS(=O)(=O)N3CCCC3)cc12` [Almotriptan malate (Axert)] reads 2%. For `Cn1c(=O)cc(N2CCC[C@@H](N)C2)n(Cc2ccccc2C#N)c1=O` [Alogliptin (SYR-322)], under setting [2], the inhibition of growth at 5 µM stood at 44.1%.

For the compound `CC1(C)[C@@H](O[C@H]2O[C@H](C(=O)O)[C@@H](O)[C@H](O)[C@@H]2O[C@@H]2O[C@H](C(=O)O)[C@@H](O)[C@H](O)[C@H]2O)CC[C@@]2(C)[C@H]3C(=O)C=C4[C@@H]5C[C@@](C)(C(=O)O)CC[C@]5(C)CC[C@@]4(C)[C@]3(C)CC[C@@H]12` [Ammonium Glycyrrhizinate (AMGZ)], the inhibition of growth at 5 µM under setting [2] came out at 0.1%. In the case of `CN(C)CCN1C(=O)c2cccc3cc(N)cc(c23)C1=O` [Amonafide], the inhibition of growth at 5 µM under setting [1] is -3.3%. For the compound `CC1(C)S[C@@H]2[C@H](NC(=O)[C@H](N)c3ccc(O)cc3)C(=O)N2[C@@H]1C(=O)O` [Amoxicillin sodium (Amox)], the inhibition of growth at 5 µM under setting [2] came to 9.1%. For the compound `CC(=O)Nc1ccc(OC[C@](C)(O)C(=O)Nc2ccc([N+](=O)[O-])c(C(F)(F)F)c2)cc1` [Andarine (GTX-007)], under setting [1], the inhibition of growth at 5 µM was -18.7%. Turning to `COc1ccc(-n2nc(C(N)=O)c3c2C(=O)N(c2ccc(N4CCCCC4=O)cc2)CC3)cc1` [Apixaban], the inhibition of growth at 5 µM under setting [1] is 2%. On to `CCOC(=O)c1c(CSc2ccccc2)n(C)c2cc(Br)c(O)c(CN(C)C)c12` [Arbidol HCl], for which the inhibition of growth at 5 µM under setting [2] was found to be 2.8%. Take `COC(=O)C1=CCCN(C)C1` [Arecoline]: the inhibition of growth at 5 µM under setting [2] is -9.5%. Same read-out and setting: to `COc1cc(OC)c(OC)cc1C=O` [Asaraldehyde (Asaronaldehyde)] belongs 10.2%; to `CC(C)(O)[C@H]1CC[C@@](C)([C@@H]2[C@@H](O)C[C@@]3(C)[C@@H]4C[C@H](O[C@@H]5O[C@H](CO)[C@@H](O)[C@H](O)[C@@H]5O)[C@H]5C(C)(C)[C@@H](O[C@@H]6OC[C@@H](O)[C@H](O)[C@H]6O)CC[C@@]56C[C@]46CC[C@]23C)O1` [Astragaloside A], 15.5%.

On to `CC(C)c1cc(C(C)C)c(CC(=O)NS(=O)(=O)Oc2c(C(C)C)cccc2C(C)C)c(C(C)C)c1` [Avasimibe (CI-1011)], for which the inhibition of growth at 5 µM under setting [1] turned out to be 5.1%.

On to `CC1=C(C(=O)OC(C)C)C(c2cccc([N+](=O)[O-])c2)C(C(=O)OC2CN(C(c3ccccc3)c3ccccc3)C2)=C(N)N1` (stereo not drawn) [Azelnidipine], for which, under setting [2], the inhibition of growth at 5 µM came out at 15.7%.

With `CCOc1nc2cccc(C(=O)OCc3oc(=O)oc3C)c2n1Cc1ccc(-c2ccccc2-c2nc(=O)o[nH]2)cc1` [Azilsartan Medoxomil (TAK-491)], under setting [2], the inhibition of growth at 5 µM was found to be 35.5%.

With `COc1c(OCCCN2CCOCC2)ccc2c1N=C(NC(=O)c1cnc(N)nc1)N1CCN=C21` [BAY80-6946], under setting [2], the inhibition of growth at 5 µM came out at 40.8%. Take `Cn1c(=O)n(-c2ccc(C(C)(C)C#N)cc2)c2c3cc(-c4cnc5ccccc5c4)ccc3ncc21` [BEZ235 (NVP-BEZ235)]: the inhibition of growth at 5 µM under setting [1] came out at 5.6%. The same measure, in the same setting: to `CC[C@@H]1C(=O)N(C)c2cnc(Nc3ccc(C(=O)NC4CCN(C)CC4)cc3OC)nc2N1C1CCCC1` [BI 2536] belongs 0.7%. Turning to `Cn1c(CNc2ccc(C(=N)N)cc2)nc2cc(C(=O)N(CCC(=O)O)c3ccccn3)ccc21` [BIBR 953 (Dabigatran etexilate, Pradaxa)], under setting [2], the inhibition of growth at 5 µM was 0.3%. As for `C/C(=C\C(=O)Nc1ccccc1C(=O)O)c1ccc2ccccc2c1` [BIBR 1532], the inhibition of growth at 5 µM under setting [1] was found to be 0.4%. For the compound `CCCCCCOC(=O)/N=C(/N)c1ccc(NCc2nc3cc(C(=O)N(CCC(=O)OCC)c4ccccn4)ccc3n2C)cc1` [BIBR-1048 (Dabigatran)], the inhibition of growth at 5 µM under setting [2] is 8.4%.

Consider `Cc1ccc(-n2nc(C(C)(C)C)cc2NC(=O)Nc2ccc(OCCN3CCOCC3)c3ccccc23)cc1` [BIRB 796 (Doramapimod)], for which the inhibition of growth at 5 µM under setting [1] was determined as 8.9%. Take `COc1cc2nc(N3CCCN(C)CC3)nc(NC3CCN(Cc4ccccc4)CC3)c2cc1OC` [BIX01294]: under setting [2], the inhibition of growth at 5 µM is 21.8%. Regarding `Cc1nc(NC(=O)N2CCC[C@H]2C(N)=O)sc1-c1ccnc(C(C)(C)C(F)(F)F)c1` [BYL719], under setting [2], the inhibition of growth at 5 µM is 47.5%. On to `CCN(CCO)CCCOc1ccc2c(Nc3cc(CC(=O)Nc4cccc(F)c4)n[nH]3)ncnc2c1` [Barasertib (AZD1152-HQPA)], for which, under setting [1], the inhibition of growth at 5 µM was 54.4%. Consider `O=C(/C=C/c1cccc(S(=O)(=O)Nc2ccccc2)c1)NO` [Belinostat (PXD101)], for which the inhibition of growth at 5 µM under setting [1] was 65.8%. Take `N[C@@H]1CCCCN(c2c(F)cc3c(=O)c(C(=O)O)cn(C4CC4)c3c2Cl)C1` [Besifloxacin HCl (Besivance)]: the inhibition of growth at 5 µM under setting [2] amounted to 39.1%.

`C[C@H]1C[C@H]2[C@@H]3CCC4=CC(=O)C=C[C@]4(C)[C@@H]3C(=O)C[C@]2(C)[C@]1(O)C(=O)CO` [Betapar (Meprednisone)]: under setting [2], the inhibition of growth at 5 µM is 0.9%.

With `CC(C)NCC(O)COc1ccc(CCOCC2CC2)cc1` (stereo not drawn) [Betaxolol (Betoptic)], the inhibition of growth at 5 µM under setting [3] turned out to be 9.5%. Turning to `CCNC(=O)CCC/C=C\C[C@@H]1[C@@H](/C=C/[C@@H](O)CCc2ccccc2)[C@H](O)C[C@@H]1O` [Bimatoprost], under setting [2], the inhibition of growth at 5 µM stood at 9%. With `Cc1cc2c(F)c(Oc3ncnn4cc(OC[C@@H](C)O)c(C)c34)ccc2[nH]1` [Brivanib (BMS-540215)], under setting [3], the inhibition of growth at 5 µM worked out at 49.8%. With `CN(Cc1ccc(C(C)(C)C)cc1)Cc1cccc2ccccc12` [Butenafine HCl], under setting [2], the inhibition of growth at 5 µM was determined as 7.5%.

Consider `CC[C@H](Nc1ncnc2[nH]cnc12)c1nc2cccc(F)c2c(=O)n1-c1ccccc1` [CAL-101 (GS-1101)], for which the inhibition of growth at 5 µM under setting [2] is 47.8%. Consider `CCNC(=O)[C@H]1O[C@@H](n2cnc3c(N)nc(NCCc4ccc(CCC(=O)O)cc4)nc32)[C@@H](O)[C@@H]1O` [CGS 21680 HCl], for which the inhibition of growth at 5 µM under setting [1] came to 0.9%. Take `CCc1cc2c(cc1N1CCC(N3CCOCC3)CC1)C(C)(C)c1[nH]c3cc(C#N)ccc3c1C2=O` [CH5424802]: under setting [2], the inhibition of growth at 5 µM was 46.1%. Turning to `O=C(NOCC1CC1)c1ccc(F)c(F)c1Nc1ccc(I)cc1Cl` [CI-1040 (PD184352)], the inhibition of growth at 5 µM under setting [1] stood at 0.4%.

Take `COc1cc2ncnc(-n3nc(-c4ccccn4)nc3N)c2cc1OC` [CP-466722]: the inhibition of growth at 5 µM under setting [2] was 2.5%.
